From patent US9365522B2, “Pyrazole amide derivative” (AMGEN INC., priority 2015, dated 2016)

Target: T1, ligand binding domain of human ROR gamma (Homo sapiens, UniProt P51449)
T1 construct: NM_001001523; expressed in transfected cells; host or cells: HEK293T
T1 sequence (P51449 247-497 isoform P51449-2): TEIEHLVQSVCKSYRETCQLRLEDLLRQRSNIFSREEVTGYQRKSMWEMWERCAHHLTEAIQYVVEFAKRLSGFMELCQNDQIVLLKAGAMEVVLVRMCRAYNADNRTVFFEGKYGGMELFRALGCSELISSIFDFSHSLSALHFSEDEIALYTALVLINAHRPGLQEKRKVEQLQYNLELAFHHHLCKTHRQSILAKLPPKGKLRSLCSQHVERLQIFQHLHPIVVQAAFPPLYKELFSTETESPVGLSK
Experiment: ROR gamma reporter gene assay (GAL4-RORγ LBD luciferase, Dual-Glo)
Assay type: cell-based
Settings: HEK293T cells transfected with pM-ROR gamma, 8 concentrations 3.5 nM to 10.5 μM, 24 h incubation; read-out: result (pIC50, inhibition of RORγ transcriptional activity) (converted)
In short: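 First, HEK293T cells are transfected with the GAL4–RORγ LBD construct, a 5×UAS luciferase reporter and a constitutive renilla control. Next, test compounds are added over eight concentrations (3.5 nM to 10.5 μM). After 24 h at 37 °C, Dual-Glo luminescence is measured and pIC50 fitted.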

IC50 | SMILES
11700 pM | CC1(C)[C@@H]2C[C@H](N(CC(=O)c3c(Cl)cccc3Cl)C(=O)c3cnn([C@H]4CC[C@](C)(C(=O)O)CC4)c3C(F)(F)F)C[C@@H]21 [Example 278, trans-4-(4-((2-(2,6-dichlorophenyl)-2-oxoethyl)((1R,3r,5S)-6,6-dimethylbicyclo[3.1.0]hexan-3-yl)carbamoyl)-5-(trifluoromethyl)-1H-pyrazol-1-yl)-1-methylcyclohexanecarboxylic acid]
4.37e+06 pM | C[C@]1(C(=O)O)CC[C@H](n2ncc(C(=O)N(CC(=O)c3c(Cl)cncc3Cl)Cc3cc(F)cc(F)c3)c2C(F)F)CC1 [Example 178, trans-4-(4-((2-(3,5-dichloropyridin-4-yl)-2-oxoethyl)-((3,5-difluorophenyl)methyl)carbamoyl)-5-(difluoromethyl)pyrazol-1-yl)-1-methylcyclohexane-1-carboxylic acid]
331000 pM | O=C(CN(Cc1csc(Cl)n1)C(=O)c1cnn([C@H]2CC[C@H](C(=O)O)CC2)c1C(F)(F)F)c1c(Cl)cncc1Cl [Example 167, trans-4-(4-((2-chloro-1,3-thiazol-4-yl)methyl-(2-(3,5-dichloropyridin-4-yl)-2-oxoethyl)carbamoyl)-5-(trifluoromethyl)pyrazol-1-yl)cyclohexane-1-carboxylic acid]
81300 pM | O=C(CN(Cc1ccc(F)cc1)C(=O)c1cnn([C@H]2C[C@H](C(=O)O)C2)c1C(F)(F)F)c1c(Cl)cncc1Cl [Example 82, trans-3-(4-((2-(3,5-dichloropyridin-4-yl)-2-oxoethyl)(4-fluorobenzyl)carbarnoyl)-5-(trifluoromethyl)-1H-pyrazol-1-yl)cyclobutanecarboxylic acid]
4270 pM | C[C@]1(C(=O)O)CC[C@H](n2ncc(C(=O)N(CC(=O)c3c(Cl)cccc3Cl)CC3(F)CCCC3)c2C(F)(F)F)CC1 [Example 281, trans-4-(4-((2-(2,6-dichlorophenyl)-2-oxoethyl)-((1-fluorocyclopentyl)methyl)carbamoyl)-5-(trifluoromethyl)pyrazol-1-yl)-1-methylcyclohexane-1-carboxylic acid]
38000 pM | Nc1cccc(Cl)c1C(=O)CN(Cc1cc(F)cc(F)c1)C(=O)c1cnn([C@H]2CC[C@H](C(=O)O)CC2)c1C(F)(F)F [Example 11, trans-4-(4-((2-(2-amino-6-chlorophenyl)-2-oxoethyl)(3,5-difluorobenzyl)carbamoyl)-5-(trifluoromethyl)-1H-pyrazol-1-yl)cyclohexanecarboxylic acid]
< 3470 pM | Cc1cc(Cl)c(C(=O)CN(CC2CC(C)(C)C2)C(=O)c2cnn(C34CCC(C(=O)O)(CC3)CC4)c2C(F)(F)F)c(Cl)c1 [Example 237, 4-(4-((2-(2,6-dichloro-4-methylphenyl)-2-oxoethyl)-((3,3-dimethylcyclobutyl)methyl)carbamoyl)-5-(trifluoromethyl)pyrazol-1-yl)bicyclo[2.2.2]octane-1-carboxylic acid]
1.74e+06 pM | CC(C)(C)CN(C[C@@H](O)c1ncccc1Cl)C(=O)c1cnn([C@H]2CC[C@](C)(C(=O)O)CC2)c1C(F)(F)F (stereo in doubt) [Example 403, trans-4-(4-((2-(3-chloropyridin-2-yl)-2-hydroxyethyl)-(2,2-dimethylpropyl)carbamoyl)-5-(trifluoromethyl)pyrazol-1-yl)-1-methylcyclohexane-1-carboxylic acid]
195000 pM | O=C(CN(Cc1ccc(F)cc1)C(=O)c1cnn([C@H]2CC[C@H](C(=O)O)CC2)c1CC(F)(F)F)c1c(Cl)cncc1Cl [Example 228, trans-4-(4-((2-(3,5-dichloropyridin-4-yl)-2-oxoethyl)-((4-fluorophenyl)methyl)carbamoyl)-5-(2,2,2-trifluoroethyl)pyrazol-1-yl)cyclohexane-1-carboxylic acid]
2.04e+06 pM | O=C(CN(Cc1cc(F)cc(F)c1)C(=O)c1cnn([C@H]2CC[C@H](C(=O)O)CC2)c1C(F)(F)F)c1c(Cl)cc(OC(F)(F)F)cc1Cl [Example 127, trans-4-(4-((2-(2,6-dichloro-4-(trifluoromethoxy)phenyl)-2-oxoethyl)-((3,5-difluorophenyl)methyl)carbamoyl)-5-(trifluoromethyl)pyrazol-1-yl)cyclohexane-1-carboxylic acid]
66100 pM | O=C(CN(C(=O)c1cnn([C@H]2CC[C@H](C(=O)O)CC2)c1C(F)(F)F)C1CCC2(CC1)CC2)c1c(Cl)cncc1Cl [Example 182, trans-4-(4-((2-(3,5-dichloropyridin-4-yl)-2-oxoethyl)-spiro[2,5]octan-6-ylcarbamoyl)-5-(trifluoromethyl)pyrazol-1-yl)cyclohexane-1-carboxylic acid]
6610 pM | CC1(C)CCC(N(CC(=O)c2c(Cl)cc(F)cc2Cl)C(=O)c2cnn(C34CCC(C(=O)O)(CC3)CC4)c2C(F)(F)F)CC1 [Example 230, 4-(4-((2-(2,6-dichloro-4-fluorophenyl)-2-oxoethyl)-(4,4-dimethylcyclohexyl)carbamoyl)-5-(trifluoromethyl)pyrazol-1-yl)bicyclo[2.2.2]octane-1-carboxylic acid]
117000 pM | COc1cccc(Cl)c1C(=O)CN(CC1CCC(C)(C)CC1)C(=O)c1cnn([C@H]2CC[C@](C)(C(=O)O)CC2)c1C(F)(F)F [Example 259, trans-4-(4-((2-(2-chloro-6-methoxyphenyl)-2-oxoethyl)-((4,4-dimethylcyclohexyl)methyl)carbamoyl)-5-(trifluoromethyl)pyrazol-1-yl)-1-methylcyclohexane-1-carboxylic acid]
5890 pM | CC(C)(C)CN(CC(=O)c1c(Cl)cccc1C(F)(F)F)C(=O)c1cnn(C23CCC(C(=O)O)(CC2)CC3)c1C(F)(F)F [Example 263, 4-(4-((2-(2-chloro-6-(trifluoromethyl)phenyl)-2-oxoethyl)-(2,2-dimethylpropyl)carbamoyl)-5-(trifluoromethyl)pyrazol-1-yl)bicyclo[2.2.2]octane-1-carboxylic acid]
10000 pM | C[C@]1(C(=O)O)CC[C@H](n2ncc(C(=O)N(CC(=O)c3c(Cl)cc(Cl)cc3Cl)CC3CC4(CC4)C3)c2C(F)(F)F)CC1 [Example 234, trans-4-(4-((2-oxo-2-(2,4,6-trichlorophenyl)ethyl)-(spiro[2.3]hexan-5-ylmethyl)carbamoyl)-5-(trifluoromethyl)pyrazol-1-yl)-1-methylcyclohexane-1-carboxylic acid]
15800 pM | CC(C)(C)CN(CC(=O)c1c(Cl)cncc1Cl)C(=O)c1cnn(C23CCC(C(=O)O)(CC2)CC3)c1C(F)(F)F [Example 233, 4-(4-((2-(3,5-dichloropyridin-4-yl)-2-oxoethyl)-(2,2-dimethylpropyl)carbamoyl)-5-(trifluoromethyl)pyrazol-1-yl)bicyclo[2.2.2]octane-1-carboxylic acid]
2950 pM | CC(C)(C)CN(CC(=O)c1c(Cl)cc(Cl)cc1Cl)C(=O)c1cnn([C@H]2CC[C@](C)(C(=O)O)CC2)c1C(F)(F)F [Example 221, trans-4-(4-(2,2-dimethylpropyl-(2-oxo-2-(2,4,6-trichlorophenyl)ethyl)carbamoyl)-5-(trifluoromethyl)pyrazol-1-yl)-1-methylcyclohexane-1-carboxylic acid]
